Test results as given in patent US11130769B2 (Prelude Therapeutics Incorporated, priority 2018, dated 2021).
Like-named read-outs stand apart in the source and are kept apart here.

Experiments:
[1] = molecular target: MCL-1 (Homo sapiens (Human), UniProt Q07820); test: Cell free Mcl-1:Bim affinity assay (fluorescence polarization competition); assay type: binding; conditions: 15 nM MCL-1, 5 nM FITC-Bim, 1 hour at room temperature, read-out: BIM_Ki
Procedure: The binding affinity of each compound was measured via a fluorescence polarization competition assay, in which the compound competes for the same binding site with the ligand, and thus leads to a dose-dependent anisotropy reduction. The tracer ligand utilized was a fluorescein isothiocyanate labelled peptide (FITC-[…]) derived from Bim (GenScript).
The assay was carried out in black half-area 96-well NBS plate (Corning), containing 15 nM of MCL-1 (BPS Bioscience), 5 nM of FITC-Bim and 3-fold serial diluted test compounds in a total volume of 50 μL of assay buffer (20 mM HEPES, 50 mM NaCl, 0.002% Tween 20, 1 mM TCEP, and 1% DMSO). The reaction plate was incubated for 1 hour at room temperature. The change of anisotropy is measured with an Envision multimode plate reader (PerkinElmer) at emission wavelength 535 nm. Fluorescence polarization was calculated in mP unit and the percentage inhibition was calculated by % inhibition=100×(mPDMSO−mP)/(mPDMSO−mPPC), in which mPDMSO is the DMSO control, and mPpc is the positive control. IC50 values were determined from a 10-point dose response curve by fitting the percent inhibition against compound concentration using the GraphPad Prism software. The inhibition constant Ki was subsequently calculated according to the Nikolovska-Coleska's equation (Anal. Biochem., 2004, 332, 261),
[formula] • where [I]50 is the concentration of the free inhibitor at 50% inhibition, [L]50 is the concentration of the free labeled ligand at 50% inhibition, [P]0 is the concentration of the free protein at 0% inhibition, and Kd is the dissociation constant of the protein-ligand complex. See Table F. Caspase 3/7 Activity Assay

[2] = test system: H929 cells; test: Cell viability assay (H929 10 FBS); assay type: cell-based; conditions: Homo sapiens, NCI-H929, 24 hours, read-out: H929_10FBS IC50
Procedure: Cell Viability Assay (H929 10 FBS)
Dispense 10 μL aliquot of prepared H929 cells (1:1 ratio of cells:Trypan Blue (#1450013, Bio-Rad)) onto cell counting slide (#145-0011, Bio-Rad) and obtain cell density and cell viability using cell counter (TC20, Bio-Rad). Remove appropriate volume of resuspended cells from culture flask to accommodate 4000 cells/well @ 10 μL/well. Transfer H929 cells to 50 mL conical (#430290, Corning). Spin down at 1000 rpm for 5 min using tabletop centrifuge (SPINCHRON 15, Beckman). Discard supernatant and resuspend cell pellet in modified RPMI 1640 (#10-040-CV, Corning) cell culture media containing 10% FBS (F2422-500 ML, Sigma), sodium pyruvate (100 mM) (#25-000-CL, Corning), HEPES buffer (1 M) (#25-060-CL, Corning) and glucose (200 g/L) (A24940-01, Gibco) to a cell density of 400,000 cells/mL. Dispense 10 μL of resuspended H929 cells per well in 384-well small volume TC treated plate (#784080, Greiner Bio-one) using standard cassette (#50950372, Thermo Scientific) on Multi-drop Combi (#5840310, Thermo Scientific) in laminar flow cabinet. Dispense compounds onto plates using digital liquid dispenser (D300E, Tecan). Incubate plates in humidified tissue culture incubator @ 37° C. for 24 hours. Add 10 μL of prepared CellTiTer-Glo® detection buffer (G7570, Promega) or ATPlite 1 Step detection reagent (#6016731, Perkin Elmer) to each well of 384-well plate using small tube cassette (#24073295, Thermo Scientific) on Combi multi drop, incubate @ RT for 30-60 min. Read plates with microplate reader (PheraStar, BMG Labtech) using 384 well luminescence mode.

MCL-1, sequence (Q07820 whole entry): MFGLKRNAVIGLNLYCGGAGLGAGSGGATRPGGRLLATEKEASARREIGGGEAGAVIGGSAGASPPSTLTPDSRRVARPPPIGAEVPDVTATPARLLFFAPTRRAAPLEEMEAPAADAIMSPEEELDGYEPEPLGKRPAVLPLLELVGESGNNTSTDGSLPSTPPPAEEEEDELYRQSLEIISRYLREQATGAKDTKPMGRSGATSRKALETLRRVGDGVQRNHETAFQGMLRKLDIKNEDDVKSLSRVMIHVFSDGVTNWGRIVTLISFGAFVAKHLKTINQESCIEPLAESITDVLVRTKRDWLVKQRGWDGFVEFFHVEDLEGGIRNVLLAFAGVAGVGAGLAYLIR

Row | Ki ([1]; numeric values) | IC50 [2] | Ki ([1]; class symbols) | SMILES
1 | 15.8 nM | > 1000 nM | – | CC(=O)NS(=O)(=O)c1ccc2c(c1)N(CC1CCC1)C[C@@]1(CCCc3cc(Cl)ccc31)CO2 [Example 12, N-[(3S)-6′-Chloro-5-(cyclobutylmethyl)spiro[2,4-dihydro-1,5-benzoxazepine-3,1′-tetralin]-7-yl]sulfonylacetamide]
2 | 22 nM | > 1000 nM | – | O=C(NS(=O)(=O)c1ccc2c(c1)N(CC1CCC1)C[C@@]1(CCCc3cc(Cl)ccc31)CO2)C1CCCC1 [Example 13, N-[(3S)-6′-Chloro-5-(cyclobutylmethyl)spiro[2,4-dihydro-1,5-benzoxazepine-3,1′-tetralin]-7-yl]sulfonylcyclopentanecarboxamide]
3 | 8.7 nM | > 1000 nM | – | Cc1cc(CC(=O)NS(=O)(=O)c2ccc3c(c2)N(CC2CCC2)C[C@@]2(CCCc4cc(Cl)ccc42)CO3)nn1C [Example 15, 2-(1,5-Dimethylpyrazol-3-yl)-N-[(3S)-6′-chloro-5-(cyclobutylmethyl)spiro[2,4-dihydro-1,5-benzoxazepine-3,1′-tetralin]-7-yl]sulfonyl-acetamide]
4 | 9 nM | > 1000 nM | – | O=C(Cc1nccs1)NS(=O)(=O)c1ccc2c(c1)N(CC1CCC1)C[C@@]1(CCCc3cc(Cl)ccc31)CO2 [Example 16, N-[(3S)-6′-Chloro-5-(cyclobutylmethyl)spiro[2,4-dihydro-1,5-benzoxazepine-3,1′-tetralin]-7-yl]sulfonyl-2-thiazol-2-yl-acetamide]
5 | 7.4 nM | > 1000 nM | – | Cc1ccc(CC(=O)NS(=O)(=O)c2ccc3c(c2)N(CC2CCC2)C[C@@]2(CCCc4cc(Cl)ccc42)CO3)cn1 [Example 17, 2-(6-Methyl-3-pyridyl)-N-[(3S)-6′-chloro-5-(cyclobutylmethyl)spiro[2,4-dihydro-1,5-benzoxazepine-3,1′-tetralin]-7-yl]sulfonyl-acetamide]
6 | 1.4 nM | > 1000 nM | – | O=C1Cc2cccc(c2)OC[C@@H]2CC[C@H]2CN2C[C@@]3(CCCc4cc(Cl)ccc43)COc3ccc(cc32)S(=O)(=O)N1 [Example 18, (3R,6R,24S)-6′-Chloro-17,17-dioxo-spiro[8,22-dioxa-17λ^6-thia-1,16-diazapentacyclo[16.7.2.1^9,13.0^3,6.0^21,26]octacosa-9(28),10,12,18(27),19,21(26)-hexaene-24,1′-tetralin]-15-one]
7 | 9.3 nM | > 1000 nM | – | O=C(Cc1ccncc1)NS(=O)(=O)c1ccc2c(c1)N(CC1CCC1)C[C@@]1(CCCc3cc(Cl)ccc31)CO2 [Example 19, 2-Pyridin-4-yl-N-[(3S)-6′-chloro-5-(cyclobutylmethyl)spiro[2,4-dihydro-1,5-benzoxazepine-3,1′-tetralin]-7-yl]sulfonyl-acetamide]
8 | 53.3 nM | > 1000 nM | – | CC(C)(C)OC(=O)N1CCC(C(=O)NS(=O)(=O)c2ccc3c(c2)N(CC2CCC2)CC2(CCCc4cc(Cl)ccc42)CO3)CC1 (stereo not shown) [Example 21, tert-Butyl 4-[[6′-chloro-5-(cyclobutylmethyl)spiro[2,4-dihydro-1,5-benzoxazepine-3,1′-tetralin]-7-yl]sulfonylcarbamoyl]piperidine-1-carboxylate]
9 | 57 nM | > 1000 nM | – | CC(C)(C)OC(=O)N1CCC(CC(=O)NS(=O)(=O)c2ccc3c(c2)N(CC2CCC2)CC2(CCCc4cc(Cl)ccc42)CO3)CC1 (stereo not shown) [Example 22, tert-Butyl 4-[2-[[6′-chloro-5-(cyclobutylmethyl)spiro[2,4-dihydro-1,5-benzoxazepine-3,1′-tetralin]-7-yl]sulfonylamino]-2-oxo-ethyl]piperidine-1-carboxylate]
10 | 73.6 nM | > 1000 nM | – | CC(C)(C)OC(=O)N1CCC[C@H](OC(=O)NS(=O)(=O)c2ccc3c(c2)N(CC2CCC2)CC2(CCCc4cc(Cl)ccc42)CO3)C1 (stereo partly drawn) [Example 23, tert-Butyl (3S)-3-[[6′-chloro-5-(cyclobutylmethyl)spiro[2,4-dihydro-1,5-benzoxazepine-3,1′-tetralin]-7-yl]sulfonylcarbamoyloxy]piperidine-1-carboxylate]
11 | 6 nM | > 1000 nM | – | O=C(NS(=O)(=O)c1ccc2c(c1)N(CC1CCC1)CC1(CCCc3cc(Cl)ccc31)CO2)N1CCCC1 (stereo not shown) [Example 24, N-[6′-Chloro-5-(cyclobutylmethyl)spiro[2,4-dihydro-1,5-benzoxazepine-3,1′-tetralin]-7-yl]sulfonylpyrrolidine-1-carboxamide]
12 | 9 nM | > 1000 nM | – | O=C1Cc2cccc(c2)SC[C@@H]2CCC2CN2CC3(CCCc4cc(Cl)ccc43)COc3ccc(cc32)S(=O)(=O)N1 (stereo partly drawn) [Example 25, (1S,1′R,2′R)-6-Chloro-3,4-dihydro-2H-spiro[naphthalene-1,3′-5,10-dithia-9-aza-1(5,7)-benzo[b][1,4]oxazepina-6(1,3)-benzena-3(1,2)-cyclobutanacyclodecaphan]-8′-one 10′,10′-dioxide]
13 | – | > 1000 nM | 1 to 100 nM | CO[C@H]1/C=C/CNCC2(CCC2)C(=O)NS(=O)(=O)c2ccc3c(c2)N(C[C@H]2CCC21)CC1(CCCc2cc(Cl)ccc21)CO3 (stereo partly drawn) [Example 26, (3R,6R,7R,8E,23S)-6′-Chloro-7-methoxy-13,13-(1,3-propylene)-16,16-dioxo-spiro[21-oxa-16-thia-1,11,15-triazatetracyclo[15.7.2.03,6.020,25]hexacosa[8,17(26),18,20(25)]tetraene-23,1′-tetralin]-14-one]
14 | – | > 1000 nM | 1 to 100 nM | CO[C@@H]1/C=C/CN(C)CC2(CCC2)C(=O)NS(=O)(=O)c2ccc3c(c2)N(C[C@@H]2CC[C@H]21)C[C@@]1(CCCc2cc(Cl)ccc21)CO3 [Example 27, (3R,6R,7R,8E,23S)-6′-Chloro-7-methoxy-11-methyl-13,13-(1,3-propylene)-16,16-dioxo-spiro[21-oxa-16-thia-1,11,15-triazatetracyclo[15.7.2.03,6.020,25]hexacosa[8,17(26),18,20(25)]tetraene-23,1′-tetralin]-14-one]
15 | – | > 1000 nM | < 1 nM | CO[C@H]1/C=C/COC2(CC2)C(=O)NS(=O)(=O)c2ccc3c(c2)N(C[C@@H]2CC[C@H]21)C[C@@]1(CCCc2cc(Cl)ccc21)CO3 [Example 28, (3R,6R,7S,8E,22S)-6′-Chloro-7-methoxy-12,12-ethylene-15,15-dioxo-spiro[[11,20]dioxa-15-thia-1,14-diazatetracyclo[14.7.2.03,6.019,24]pentacosa[8,16(25),17,19(24)]tetraene-22,1′-tetralin]-13-one]
16 | – | < 1000 nM | < 1 nM | CO[C@@H]1/C=C/COC2(CC2)C(=O)NS(=O)(=O)c2ccc3c(c2)N(C[C@@H]2CC[C@H]21)C[C@@]1(CCCc2cc(Cl)ccc21)CO3 [Example 29, (3R,6R,7R,8E,22S)-6′-Chloro-7-methoxy-12,12-ethylene-15,15-dioxo-spiro[[11,20]dioxa-15-thia-1,14-diazatetracyclo[14.7.2.03,6.019,24]pentacosa[8,16(25),17,19(24)]tetraene-22,1′-tetralin]-13-one]
17 | – | < 1000 nM | < 1 nM | CO[C@@H]1/C=C/COC(C)(C)C(=O)NS(=O)(=O)c2ccc3c(c2)N(C[C@@H]2CC[C@H]21)C[C@@]1(CCCc2cc(Cl)ccc21)CO3 [Example 30, (3R,6R,7R,8E,22S)-6′-Chloro-7-methoxy-12,12-dimethyl-15,15-dioxo-spiro[[11,20]dioxa-15-thia-1,14-diazatetracyclo[14.7.2.03,6.019,24]pentacosa[8,16(25),17,19(24)]tetraene-22,1′-tetralin]-13-one]
